Assay results as given in the supplement of paper PMC10307832.

Key:
Experiment in all cases: relative viability (nuclei count vs DMSO), 5 days (fraction); higher = more cells survive
A549 = system: A549
Outline: (§1)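 Relative viability is defined as nuclei in treated wells over nuclei in vehicle wells. Duplicate plates were run and medians reported. Lung cancer cell lines in 1536-well plates were dosed by pin tool one day after seeding, with one drug or with a fixed anchor-drug dose plus five library-drug doses (not always all listed) in √10 steps, and nuclei were counted after 5 days.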

LCLC-97TM1 = system: LCLC-97TM1
Outline: as §1

NCI-H1355 = system: NCI-H1355
Outline: as §1

NCI-H1648 = system: NCI-H1648
Outline: as §1

NCI-H1993 = system: NCI-H1993
Outline: as §1

NCI-H23 = system: NCI-H23
Outline: as §1

NCI-H322M = system: NCI-H322M
Outline: as §1

NCI-H596 = system: NCI-H596
Outline: as §1

UMC-11 = system: UMC-11
Outline: as §1

## COc1nc(C)cnc1NS(=O)(=O)c1cccnc1-c1ccc(-c2nnco2)cc1 [Zibotentan] + Nc1ncn([C@H]2C[C@H](O)[C@@H](CO)O2)c(=O)n1 [Decitabine] (partner 2 µM)
A549; first compound 0.08 µM
  relative viability: 0.232
A549; first compound 0.253 µM
  relative viability: 0.266
A549; first compound 0.8 µM
  relative viability: 0.305
A549; first compound 2.53 µM
  relative viability: 0.285
LCLC-97TM1; first compound 0.08 µM
  relative viability: 0.26
LCLC-97TM1; first compound 0.253 µM
  relative viability: 0.266
LCLC-97TM1; first compound 0.8 µM
  relative viability: 0.229
LCLC-97TM1; first compound 2.53 µM
  relative viability: 0.246
NCI-H1355; first compound 0.08 µM
  relative viability: 0.346
NCI-H1355; first compound 0.253 µM
  relative viability: 0.337
NCI-H1355; first compound 0.8 µM
  relative viability: 0.368
NCI-H1355; first compound 2.53 µM
  relative viability: 0.35
NCI-H1648; first compound 0.08 µM
  relative viability: 0.544
NCI-H1648; first compound 0.253 µM
  relative viability: 0.464
NCI-H1648; first compound 0.8 µM
  relative viability: 0.519
NCI-H1648; first compound 2.53 µM
  relative viability: 0.461
NCI-H1993; first compound 0.08 µM
  relative viability: 0.639
NCI-H1993; first compound 0.253 µM
  relative viability: 0.576
NCI-H1993; first compound 0.8 µM
  relative viability: 0.521
NCI-H1993; first compound 2.53 µM
  relative viability: 0.61
NCI-H23; first compound 0.08 µM
  relative viability: 0.321
NCI-H23; first compound 0.253 µM
  relative viability: 0.286
NCI-H23; first compound 0.8 µM
  relative viability: 0.34
NCI-H23; first compound 2.53 µM
  relative viability: 0.38
NCI-H322M; first compound 0.08 µM
  relative viability: 0.74
NCI-H322M; first compound 0.253 µM
  relative viability: 0.679
NCI-H322M; first compound 0.8 µM
  relative viability: 0.733
NCI-H322M; first compound 2.53 µM
  relative viability: 0.856
NCI-H596; first compound 0.08 µM
  relative viability: 0.992
NCI-H596; first compound 0.253 µM
  relative viability: 0.911
NCI-H596; first compound 0.8 µM
  relative viability: 1.06
NCI-H596; first compound 2.53 µM
  relative viability: 1.04
UMC-11; first compound 0.08 µM
  relative viability: 0.576
UMC-11; first compound 0.253 µM
  relative viability: 0.532
UMC-11; first compound 0.8 µM
  relative viability: 0.634
UMC-11; first compound 2.53 µM
  relative viability: 0.697

## O=c1cc(N2CCOCC2)oc2c(-c3cccc4c3sc3ccccc34)cccc12 + Nc1nc2[nH]cc(CCc3ccc(C(=O)N[C@@H](CCC(=O)O)C(=O)O)cc3)c2c(=O)[nH]1 [Pemetrexed] (partner 0.2 µM)
LCLC-97TM1; first compound 0.01 µM
  relative viability: 0.189
LCLC-97TM1; first compound 0.03162 µM
  relative viability: 0.162
LCLC-97TM1; first compound 0.1 µM
  relative viability: 0.202
LCLC-97TM1; first compound 0.3162 µM
  relative viability: 0.162
LCLC-97TM1; first compound 1 µM
  relative viability: 0.177
NCI-H1355; first compound 0.01 µM
  relative viability: 1.12
NCI-H1355; first compound 0.03162 µM
  relative viability: 0.915
NCI-H1355; first compound 0.1 µM
  relative viability: 1.05
NCI-H1355; first compound 0.3162 µM
  relative viability: 1.1
NCI-H1355; first compound 1 µM
  relative viability: 0.981
NCI-H1648; first compound 0.03162 µM
  relative viability: 0.681
NCI-H1648; first compound 0.1 µM
  relative viability: 0.894
NCI-H1648; first compound 0.3162 µM
  relative viability: 0.667
NCI-H1648; first compound 1 µM
  relative viability: 0.583
NCI-H1993; first compound 0.01 µM
  relative viability: 0.624
NCI-H1993; first compound 0.03162 µM
  relative viability: 0.524
NCI-H1993; first compound 0.1 µM
  relative viability: 0.621
NCI-H1993; first compound 0.3162 µM
  relative viability: 0.54
NCI-H1993; first compound 1 µM
  relative viability: 0.553
NCI-H23; first compound 0.01 µM
  relative viability: 0.732
NCI-H23; first compound 0.03162 µM
  relative viability: 0.761
NCI-H23; first compound 0.3162 µM
  relative viability: 0.659
NCI-H23; first compound 1 µM
  relative viability: 0.609
NCI-H322M; first compound 0.01 µM
  relative viability: 0.611
NCI-H322M; first compound 0.03162 µM
  relative viability: 0.613
NCI-H322M; first compound 0.3162 µM
  relative viability: 0.617
NCI-H322M; first compound 1 µM
  relative viability: 0.61
NCI-H596; first compound 0.01 µM
  relative viability: 0.452
NCI-H596; first compound 0.03162 µM
  relative viability: 0.521
NCI-H596; first compound 0.1 µM
  relative viability: 0.528
NCI-H596; first compound 0.3162 µM
  relative viability: 0.517
NCI-H596; first compound 1 µM
  relative viability: 0.482
UMC-11; first compound 0.01 µM
  relative viability: 0.738
UMC-11; first compound 0.03162 µM
  relative viability: 0.66
UMC-11; first compound 0.1 µM
  relative viability: 0.868
UMC-11; first compound 0.3162 µM
  relative viability: 0.805
UMC-11; first compound 1 µM
  relative viability: 0.789

## O=c1cc(-c2cccc3c2Sc2ccccc2S3)oc(N2CCOCC2)c1 + Nc1nc2[nH]cc(CCc3ccc(C(=O)N[C@@H](CCC(=O)O)C(=O)O)cc3)c2c(=O)[nH]1 [Pemetrexed] (partner 0.2 µM)
LCLC-97TM1; first compound 0.08 µM
  relative viability: 0.175
LCLC-97TM1; first compound 0.253 µM
  relative viability: 0.169
LCLC-97TM1; first compound 0.8 µM
  relative viability: 0.18
LCLC-97TM1; first compound 2.53 µM
  relative viability: 0.177
LCLC-97TM1; first compound 8 µM
  relative viability: 0.175
NCI-H1355; first compound 0.08 µM
  relative viability: 1.11
NCI-H1355; first compound 0.253 µM
  relative viability: 1.15
NCI-H1355; first compound 0.8 µM
  relative viability: 0.898
NCI-H1355; first compound 2.53 µM
  relative viability: 0.995
NCI-H1355; first compound 8 µM
  relative viability: 1.06
NCI-H1648; first compound 0.253 µM
  relative viability: 0.701
NCI-H1648; first compound 0.8 µM
  relative viability: 0.624
NCI-H1648; first compound 8 µM
  relative viability: 0.749
NCI-H1993; first compound 0.08 µM
  relative viability: 0.588
NCI-H1993; first compound 0.253 µM
  relative viability: 0.702
NCI-H1993; first compound 0.8 µM
  relative viability: 0.567
NCI-H1993; first compound 2.53 µM
  relative viability: 0.497
NCI-H1993; first compound 8 µM
  relative viability: 0.613
NCI-H23; first compound 0.08 µM
  relative viability: 0.584
NCI-H23; first compound 0.253 µM
  relative viability: 0.902
NCI-H23; first compound 0.8 µM
  relative viability: 0.72
NCI-H23; first compound 2.53 µM
  relative viability: 0.518
NCI-H23; first compound 8 µM
  relative viability: 0.575
NCI-H322M; first compound 0.08 µM
  relative viability: 0.57
NCI-H322M; first compound 0.253 µM
  relative viability: 0.61
NCI-H322M; first compound 0.8 µM
  relative viability: 0.598
NCI-H322M; first compound 2.53 µM
  relative viability: 0.634
NCI-H322M; first compound 8 µM
  relative viability: 0.602
NCI-H596; first compound 0.08 µM
  relative viability: 0.422
NCI-H596; first compound 0.253 µM
  relative viability: 0.52
NCI-H596; first compound 0.8 µM
  relative viability: 0.536
NCI-H596; first compound 2.53 µM
  relative viability: 0.543
NCI-H596; first compound 8 µM
  relative viability: 0.478
UMC-11; first compound 0.08 µM
  relative viability: 0.823
UMC-11; first compound 0.253 µM
  relative viability: 1.04
UMC-11; first compound 0.8 µM
  relative viability: 0.82
UMC-11; first compound 2.53 µM
  relative viability: 0.791
UMC-11; first compound 8 µM
  relative viability: 0.935
